From patent US9101620B2, “Polymorph of 3-(substituteddihydroisoindolinone-2-yl)-2,6-dioxopiperidine, and pharmaceutical compositions thereof” (Nanjing Cavendish Bio-Engineering Technology Co., Ltd., priority 2009, dated 2015)

Experiments:
Type in all cases: physicochemical
[1] = High humidity test (room temperature, 75±5% relative humidity); details: for Appearance / Content / Weight gain of moisture absorption: room temperature, 75±5% relative humidity
Experimental: (§1) The raw material of Polymorph 1 of 3-(4-amino-1-oxo-1,3-dihydro-2H-isoindole-2-yl)-piperidine-2,6-dione (hemihydrate) was distributed homogeneously in open petri dish with thickness of the raw material not more than 5 mm and put into thermostatic and humidostatic incubator at room temperature (about 25° C.) and 75±5% relative humidity. Sample was tested at the 5th and 10th day respectively and the results were contrasted with that of the Day 0. Results were listed in Tab. 4. After high humidity test of 75±5% relative humidity for 10 days, the X-ray powder diffraction pattern was shown in FIG. 9; DSC diagram was in FIG. 10-1; TGA diagram was in FIG. 10-2.
as §1, with “Polymorph II” for “Polymorph 1”, “3-(4-amino-1-oxo-1,3-dihydro-2H-isoindole-2-yl)-piperidine-2,6-dione” for “3-(4-amino-1-oxo-1,3-dihydro-2H-isoindole-2-yl)-piperidine-2,6-dione (hemihydrate)”, “Tab. 9.” for “Tab. 4.”, “FIG. 20;” for “FIG. 9;”, “FIG. 21-1;” for “FIG. 10-1;”, “FIG. 21-2.” for “FIG. 10-2.”
as §1, with “Polymorph III” for “Polymorph 1”, “3-(4-amino-1-oxo-1,3-dihydro-2H-isoindole-2-yl)-piperidine-2,6-dione” for “3-(4-amino-1-oxo-1,3-dihydro-2H-isoindole-2-yl)-piperidine-2,6-dione (hemihydrate)”, “Tab. 14.” for “Tab. 4.”, “FIG. 31;” for “FIG. 9;”, “FIG. 32-1;” for “FIG. 10-1;”, “FIG. 32-2.” for “FIG. 10-2.”

[2] = Solubility test according to Chinese Pharmacopoeia Edition 2005; details: for Dissolving status: within 30 minutes
Experimental: Test was performed according to the Examples of Chinese Pharmacopoeia Edition 2005. Method: a definite quantity of the Polymorph I of 3-(4-amino-1-oxo-1,3-dihydro-2H-isoindole-2-yl)-piperidine-2,6-dione (hemihydrate) measured accurately was added into a certain quantity of solvent slowly, while the mixture was shaken strongly for 30 seconds every 5 minutes and the dissolving status within 30 minutes was observed. Results were listed in Tab. 1.
Test was performed according to the Examples of Chinese Pharmacopoeia Edition 2005. Method: a definite quantity of the (acetonitrile) solvated Polymorph II of 3-(4-amino-1-oxo-1,3-dihydro-2H-isoindole-2-yl)-piperidine-2,6-dione measured accurately was added into a certain quantity of solvent slowly, while the mixture was shaken strongly for 30 seconds every 5 minutes and the dissolving status within 30 minutes was observed. Results were listed in Tab. 61.
Test was performed according to the Examples of Chinese Pharmacopoeia Edition 2005. Method: a definite quantity of the (acetone) solvated polymorph III of 3-(4-amino-1-oxo-1,3-dihydro-2H-isoindole-2-yl)-piperidine-2,6-dione measured accurately was added into a certain quantity of solvent slowly while the mixture was shaken strongly for 30 seconds every 5 minutes and the dissolving status within 30 minutes was observed. Results were listed in Tab. 11.

[3] = High temperature test (60° C.); details: for Appearance / Content / Related substance: 60° C.
Text: The conditions and methods of related substance test involved in this invention were in accordance with HPLC (Appendix VD of Chinese Pharmacopoeia Edition 2005).
Chromatographic conditions and system applicability: octadecylsilane bonded silica as the filler; 0.01 mol/L of potassium dihydrogen phosphate (adjusted to pH 3.5 by phosphoric acid)-methanol-acetonitrile (80:15:5) as the mobile phase; detection wavelength was 240 nm; the number of theoretical plates should be not less than 2000, calculated according to the peak of 3-(4-amino-1-oxo-1,3-dihydro-2H-isoindole-2-yl)-piperidine-2,6-dione. The resolution of the peak of 3-(4-amino-1-oxo-1,3-dihydro-2H-isoindole-2-yl)-piperidine-2,6-dione from the peaks of adjacent impurities should meet requirements.
The raw material of Polymorph I of 3-(4-amino-1-oxo-1,3-dihydro-2H-isoindole-2-yl)-piperidine-2,6-dione (hemihydrate) was put into a clean sealed glass bottle and then put in thermostatic drying chamber at 60° C. Sample was tested at the 5th and 10th day respectively and the results were contrasted with that of the Day 0. Results were listed in Tab. 3. After high temperature test of 60° C. for 10 days, the X-ray powder diffraction pattern was shown FIG. 7; DSC diagram was in FIG. 8.
The raw material of Polymorph II of 3-(4-amino-1-oxo-1,3-dihydro-2H-isoindole-2-yl)-piperidine-2,6-dione was put into a clean sealed glass bottle and then put in thermostatic drying chamber at 60° C. Sample was tested at the 5th and 10th day respectively and the results were contrasted with that of the Day 0. Results were listed in Tab. 8. After high temperature test of 60° C. for 10 days, the X-ray powder diffraction pattern was shown in FIG. 18; DSC diagram was in FIG. 19.
The raw material of Polymorph III of 3-(4-amino-1-oxo-1,3-dihydro-2H-isoindole-2-yl)-piperidine-2,6-dione was put into a clean sealed glass bottle and then put in thermostatic drying chamber at 60° C. Sample was tested at the 5th and 10th day respectively and the results were contrasted with that of the Day 0. Results were listed in Tab. 13. After high temperature test of 60° C. for 10 days, the X-ray powder diffraction pattern was shown in FIG. 29; DSC diagram was in FIG. 30.

In the case of Nc1cccc2c1CN(C1CCC(=O)NC1=O)C2=O (single isomer, unassigned) [Polymorph I, 3-(4-amino-1-oxo-1,3-dihydro-2H-isoindole-2-yl)-piperidine-2,6-dione], the “Change of appearance and content (in words)” value ([1]; high humidity test, summary) is reported as “few obvious change”, the “Moisture absorption (in words)” value ([1]; high humidity test, summary) is reported as “very slight moisture absorption” and the Appearance ([1]; 0 days) is reported as “off-white powder”. The Content ([1]; 0 days) was 99.87%, the Appearance ([1]; 5 days) was “off-white powder” and the Content ([1]; 5 days) was 99.85%. The “Weight gain of moisture absorption” value ([1]; 5 days) was 0.65%, the Appearance ([1]; 10 days) was “off-white powder” and the Content ([1]; 10 days) was 99.85%. The “Weight gain of moisture absorption” value ([1]; 10 days) was 0.66%, the “Conclusion (solubility)” value ([2]; 0.1 mol/L HCl solution) was “slightly” and the “Conclusion (solubility)” value ([2]; 0.1 mol/L HCl solution, listed as Polymorph 1) was “slightly soluble”. For the same compound, the Dissolving status ([2]; 0.1 mol/L HCl solution) was “fully”, the “Conclusion (solubility)” value ([2]; 0.1 mol/L NaOH solution) was “sparingly” and the “Conclusion (solubility)” value ([2]; 0.1 mol/L NaOH solution, listed as Polymorph 1) was “sparingly soluble”. The Dissolving status ([2]; 0.1 mol/L NaOH solution) was “fully”, the “Conclusion (solubility)” value ([2]; DMF (N,N-dimethylformamide), listed as Polymorph 1) was “soluble” and the Dissolving status ([2]; DMF) was “fully”. The “Conclusion (solubility)” value ([2]; DMSO (dimethylsulfoxide)) was “freely”, the “Conclusion (solubility)” value ([2]; DMSO (dimethylsulfoxide), listed as Polymorph 1) was “freely soluble” and the Dissolving status ([2]; DMSO) was “fully”. The “Conclusion (solubility)” value ([2]; acetic acid, listed as Polymorph 1) was “soluble”, the Dissolving status ([2]; acetic acid) was “fully” and the “Conclusion (solubility)” value ([2]; acetone) was “slightly”. For the same compound, the “Conclusion (solubility)” value ([2]; acetone, listed as Polymorph 1) was “slightly soluble”, the Dissolving status ([2]; acetone) was “fully” and the “Conclusion (solubility)” value ([2]; acetonitrile) was “slightly”. The “Conclusion (solubility)” value ([2]; acetonitrile, listed as Polymorph 1) was “slightly soluble”, the Dissolving status ([2]; acetonitrile) was “fully” and the “Conclusion (solubility)” value ([2]; ethanol) was “very slightly”. For the same compound, the “Conclusion (solubility)” value ([2]; ethanol, listed as Polymorph 1) was “very slightly soluble”, the Dissolving status ([2]; ethanol) was “fully” and the “Conclusion (solubility)” value ([2]; ethyl acetate) was “very slightly”. For the same compound, the “Conclusion (solubility)” value ([2]; ethyl acetate, listed as Polymorph 1) was “very slightly soluble”, the Dissolving status ([2]; ethyl acetate) was “fully” and the “Conclusion (solubility)” value ([2]; methanol) was “slightly”. The “Conclusion (solubility)” value ([2]; methanol, listed as Polymorph 1) was “slightly soluble”, the Dissolving status ([2]; methanol) was “fully” and the “Conclusion (solubility)” value ([2]; water) was “very slightly”. For the same compound, the “Conclusion (solubility)” value ([2]; water, listed as Polymorph 1) was “very slightly soluble”, the Dissolving status ([2]; water) was “fully” and the Appearance ([3]; 0 days) was “off-white powder”. For the same compound, the Content ([3]; 0 days) was 99.87%, the Related substance ([3]; 0 days) was 0.05% and the Appearance ([3]; 5 days) was “off-white powder”. The Content ([3]; 5 days) was 99.86%, the Related substance ([3]; 5 days) was 0.05% and the Appearance ([3]; 10 days) was “off-white powder”. For the same compound, the Content ([3]; 10 days) was 99.84%, the Related substance ([3]; 10 days) was 0.06% and the “Variation of appearance and content (in words)” value ([3]; high temperature (60° C.) test, summary) was “few significant variation”.
